{"source": "patent US6544971B1", "about": "“Method of increasing alertness by administration of a vomeropherin, and vomeropherin-emitting alarm devices” (Pherin Pharmaceuticals, Inc., priority 2000, dated 2003)", "format_in_all_cases": "in vivo", "key": {"Human Subjects [1]": {"tested_on": "Human Subjects", "test": "Morning multiple-choice questionnaire and analog scale (sleep latency, duration, quality, status at waking)", "description": "(§1) In the morning, all subjects completed a multiple-choice questionnaire regarding the following variables: sleep latency after last entry, estimated time sleeping, number of awakenings, and quality of sleep. General status at waking time was determined by marking on a 9 item analog scale inventory. In addition, all subjects were administered cognitive and motor performance tests identical to those received before bedtime."}, "Human Subjects [2]": {"tested_on": "Human Subjects", "test": "Cognitive and motor performance tests before sleep and in the morning (maze, digit-symbol substitution, dot test, number repetition)", "details": "night versus morning tests", "description": "During the study, subjects spent one night in the sleep laboratory and underwent conventional polysomnography (PSG) only, during the first hour. The criteria for this short recording was based on previous findings showing that single dose VNO stimulation with the vomeropherins induced effects within one hour after stimulation. Before starting the recordings, each subject was questioned regarding distressing or extenuating events during that day that could contribute to sleep disruption. Times of last meal and physical exercise (if applicable) were also recorded. In order to determine whether the compound would affect daytime activities, or anterograde memory, judgment and motor skills were also evaluated both before going to sleep and in the morning. […]\nas §1, with “In addition, all subjects were administered cognitive and motor performance tests identical to those received before bedtime.” left out"}, "Human Subjects [3]": {"tested_on": "Human Subjects", "test": "Sleep study by polysomnography (PSG) after VNO stimulation, randomized single-blind placebo-controlled", "details": "for Overall effect on sleep and arousal: conclusion from PSG and self-reports", "description": "Three methods were used to assess sleep: 1) sleep study, 2) quantitative electroencephalography, and 3) psychometric tests. The study was carried out using a randomized, single-blind, placebo-controlled experimental design.\nScreening was performed several days prior to the study session via clinical interviews and examination. Additionally, Hamilton A and D, and Covy tests were administered to determine concomitant anxiety or affective disorders. A thorough questionnaire regarding sleep habits and sleep pathologies was also administered to each subject. Criteria for inclusion in the study included subjects with a score of 12 or less on the Covy test and a score of 8 or less on the Hamilton A and Hamilton D tests, and absence of any medical or psychiatric conditions. Ten physically and mentally healthy young male adult subjects were selected for the study. All of them Were normal sleepers (i.e., they reported no difficulty in falling or remaining asleep at night, slept between 6 and 8.5 hours per night, and were alert during the daytime).\nOn the day of the study, they were instructed to refrain from napping, to avoid consuming alcohol or caffeine containing beverages, and to maintain a uniform daily level of activity. The ten subjects were divided into two groups of five, with the test compound being administered to one group and the other acting as a control.\nThe test compound was administered to the VNO using a manual vomeronasal applicator (MVA). This applicator comprises an air supply, delivering a 1 ml pulse of air; a valve system passing that pulse of air either through a chamber containing 30 mg of USP cotton that has been previously soaked with 1 ml of a 1 mg/ml solution of the test compound, estra-1,3,5(10),16-tetraen-3-yl acetate, in ethanol and allowed to dry overnight, or bypassing that chamber; a one-way flow valve; and a nozzle capable of being positioned in a nostril to provide direct administration to the lumen of the VNO. With a 1 ml air pulse, the MVA delivers 200 pg of the test compound to the VNO.\nDuring the study, subjects spent one night in the sleep laboratory and underwent conventional polysomnography (PSG) only, during the first hour. The criteria for this short recording was based on previous findings showing that single dose VNO stimulation with the vomeropherins induced effects within one hour after stimulation. Before starting the recordings, each subject was questioned regarding distressing or extenuating events during that day that could contribute to sleep disruption. Times of last meal and physical exercise (if applicable) were also recorded. In order to determine whether the compound would affect daytime activities, or anterograde memory, judgment and motor skills were also evaluated both before going to sleep and in the morning. For this purpose, subjects were administered a maze test, a digit-symbol substitution test, a right and left manual coordination test (dot test), and a number repetition test as described in a previous publication (Monti, J. M., 1989, Slow Wave Sleep in Health and Disease. In: Waukier A., Dugovic C. and Radulovacki M. “Slow Wave Sleep.” New York, Raven Press. pp. […]).\nImmediately prior to “lights out”, subjects were asked to lie in a supine position. The MVA was positioned in the right nostril, with its nozzle directed toward the right VNO opening. Later, the MVA was positioned in the left nostril for stimulation of the left VNO. […]"}, "Human Subjects [4]": {"tested_on": "Human Subjects", "test": "Subjective in-session self-evaluation at half-hour intervals (questionnaire and 3 item analog sleepiness scale)", "details": "for Self-Perception of Sleepiness, score on sleepiness scale inventory: scale 0 to 10, higher numbers more sleepiness", "description": "Immediately prior to “lights out”, subjects were asked to lie in a supine position. The MVA was positioned in the right nostril, with its nozzle directed toward the right VNO opening. Later, the MVA was positioned in the left nostril for stimulation of the left VNO. Two pulses of air or the test compound or placebo were administered to each VNO. The same procedure was repeated 30 minutes later, at which times the investigator would enter the room and wake the subject if they were asleep, so that the total dose of the vomeropherin being administered to each subject was 800 pg.\nAt each 30 minute sleep interruption, prior to the test compound application, each subject was given a short questionnaire to record their perception of whether they were asleep, estimated time spent awake, and number of awakenings. In addition, sleepiness was measured by a 3 item analog scale inventory (scored from 0 to 10, higher numbers indicating more sleepiness) that included: a) readiness to get back to sleep; b) degree of anxiety and c) self rated level of sleepiness. […] Recordings began at 10:00 p.m. and lasted until 6:00 a.m. of the following day. Frontal, parietal and occipital electroencephalograms (EEG), electrooculograms, and electromyograms were recorded during the first hour. These recordings were coded and scored blind for non-rapid eye movement sleep latency from “lights out” to the appearance of the first minute of Stage 1 sleep, total wake time, wake time after sleep onset, and total sleep time. Sleep stages were assigned according to the criteria of Rechtschaffen and Kales (1968). All variables were scored separately for each 30-minute interval. Number of awakenings was tallied for the entire hour of recording."}, "[5]": {"details": "morning questionnaire, latency after last entry, 5 subjects per group"}, "[6]": {"details": "morning questionnaire, 5 subjects per group"}}}
{"smiles": "CC(=O)Oc1ccc2c(c1)CC[C@@H]1[C@@H]2CC[C@]2(C)C=CC[C@@H]12", "note": "[Test Compound, estra-1,3,5(10),16-tetraen-3-yl acetate]", "values": [{"measurement": "Sleep quality (disturbed or undisturbed)", "setting": "Human Subjects [1]; classified by subjects in the morning", "result": "one subject in the test group defined their sleep as “disturbed”"}, {"measurement": "Sleep Latencies <30 Minutes, number of subjects", "setting": "Human Subjects [1]; [5]", "result": 0, "unit": "n"}, {"measurement": "Sleep Latencies >30 minutes, number of subjects", "setting": "Human Subjects [1]; [5]", "result": 5, "unit": "n"}, {"measurement": "Sleep Duration 4-6 hours, number of subjects", "setting": "Human Subjects [1]; [6]", "result": 5}, {"measurement": "Sleep Duration 7-8 hours, number of subjects", "setting": "Human Subjects [1]; [6]", "result": 0}, {"measurement": "Reported sleep latency after VNO stimulation", "setting": "Human Subjects [1]; morning quiz, control group shorter than 30 minutes", "result": "> 30", "unit": "min"}, {"measurement": "Condition at morning waking (index and visual analog scale)", "setting": "Human Subjects [1]; versus placebo", "result": "did not show any difference"}, {"measurement": "Change in scores for anterograde memory, judgment or motor dexterity", "setting": "Human Subjects [2]", "result": "Neither the control nor the test group revealed any changes in scores"}, {"measurement": "Overall effect on sleep and arousal", "setting": "Human Subjects [3]", "result": "possible psychostimulant effect"}, {"measurement": "Overall effect on sleep and arousal", "setting": "Human Subjects [3]; listed as estra-1,3,5(10),16-tetraen-3-yl acetate", "result": "primary arousing effect"}, {"measurement": "Sleep Onset Latency (SOL), Mean", "setting": "Human Subjects [3]; healthy young male adults, 5 per group, test compound to VNO by MVA, total 800 pg, first hour PSG, control group 16", "result": 21, "unit": "min"}, {"measurement": "Wake Time after Sleep Onset, Mean", "setting": "Human Subjects [3]; healthy young male adults, 5 per group, test compound to VNO by MVA, total 800 pg, first hour PSG, control group 17.7", "result": 16.3, "unit": "min"}, {"measurement": "Total Sleep Time (TST), Mean", "setting": "Human Subjects [3]; healthy young male adults, 5 per group, test compound to VNO by MVA, total 800 pg, first hour PSG, control group 26.0", "result": 14.3, "unit": "min"}, {"measurement": "Self-Perception of Sleepiness, score on sleepiness scale inventory", "setting": "Human Subjects [4]; First entry (beginning study), placebo 7.5", "result": 6.0}, {"measurement": "Self-Perception of Sleepiness, score on sleepiness scale inventory", "setting": "Human Subjects [4]; Second entry (60 min. int), after dosing, placebo 8.9", "result": 3.2}, {"measurement": "Self-reported number of awakenings", "setting": "Human Subjects [4]; self-evaluation at half-hour intervals, control group none to more than three", "result": "three or more"}, {"measurement": "Effect on subject's self-perception of sleep", "setting": "Human Subjects [4]; self-reports compared with PSG data", "result": "does not impair a subject's self-perception of sleep"}]}
